Source: patent US5550249A, “Water soluble derivatives of biotin and related therapeutical compositions” (Lifegroup, S.p.A., priority 1991, dated 1996)
Read-outs that look alike come from different tables or passages of the source.

Tests used:
[1] = system: seborrheal dermatitis of the newborn; settings: cited from earlier work
[2] = Partition in water/octanol (14C-biotin, scintillation counting); type: physicochemical
Protocol: ^14 C-biotin (53000 dpm) was used admixed with cool biotin (0.25 mmol) in 5 ml of twice distilled water, in the presence and in the absence of ethanolamine (3 μl), then adding 5 ml of octanol and stirring (1 minute by means of a stirrer VORTEX). After separation of the phases the radioactivity was measured by scintillation (Beckman counter) in 1 ml of sample. The amount of ^14 C-biotin transferred into the octanolic phase was 14443 dpm in the absence of ethanolamine and 82 dpm in the presence of ethanolamine.
This confirms the increase in solubility in the aqueous phase, which is a consequence of the salification.

insulin = settings: recent studies; cited from earlier work
diabetes = settings: cited from earlier work
[3] = system: carboxylase enzymes deficiency; settings: cited from earlier work
glucokinase = settings: recent studies; cited from earlier work
vitamin H deficiency = settings: cited from earlier work
[4] = system: peripheral neuropathies having diabetic origin; settings: human beings; cited from earlier work
[5] = cited from earlier work
Water solubility = type: physicochemical; settings: salts of biotin with an aminoalcohol
[6] = Solubility in cold ethanol; type: physicochemical
[7] = water/octanol, average of 3 tests

O=C(O)CCCC[C@@H]1SC[C@@H]2NC(=O)N[C@@H]21 [Biotin, biotin]
effect in seborrheal dermatitis in the newborn [1]: particularly effective | H2O (dpm) ([2]; pH 4, average of 3 tests): 40769 dpm | H2O/octanol ([2]; pH 4, average of 3 tests): 2.9 | octanol (dpm) ([2]; pH 4, average of 3 tests): 13991 dpm | H2O (dpm) [2, 7]: 40940 dpm | H2O/octanol [2, 7]: 2.8 | octanol (dpm) [2, 7]: 14443 dpm | activation of insulin (insulin): able to activate | blood glucose level (diabetes; insulin-dependent diabetics): lowers the blood glucose level | glucose tolerance (diabetes; insulin-independent diabetes): increase glucose tolerance | post-prandial glucose level (diabetes; insulin-independent diabetes): reduce the post-prandial glucose level | resistance to insulin (diabetes; insulin-independent diabetes): lower resistance to insulin | effect in diseases coming from a deficiency in multiple carboxylase enzymes ([3]; multiple carboxylase enzymes): effective | effect in diseases caused by single carboxylase enzymes insufficiency ([3]; single carboxylase enzymes (propionyl-CoA, pyruvate, β-methyl-crotonyl carboxylase)): uneffective | activation of glucokinase (glucokinase): able to activate | egg-white injury (vitamin H deficiency; Sidenstricker and co-workers, 1942): can be defeated | secondary effects of vitamin deficiency (vitamin H deficiency; following administration of biotin for a certain time): disappeared | treatment and prevention of diabetic peripheral neuropathies [4]: advantageously utilized | water solubility ([5]; biotin as such): 22 mg/100 ml | water solubility (in words) ([5]; prior art): poor water solubility

O=C(O)CCCC[C@@H]1SC[C@@H]2NC(=O)N[C@@H]21 [Ethanolamine biotinate, ethanolamine biotinate]
water solubility (in words) (Water solubility): completely water soluble | H2O (dpm) ([2]; pH 4, average of 3 tests): 32148 dpm | H2O/octanol ([2]; pH 4, average of 3 tests): 2.6 | octanol (dpm) ([2]; pH 4, average of 3 tests): 12300 dpm | H2O (dpm) [2, 7]: 36664 dpm | H2O/octanol [2, 7]: 447.1 | octanol (dpm) [2, 7]: 82 dpm | solubility in cold ethanol (in words) [6]: rather soluble in cold ethanol

O=C(O)CCCC[C@@H]1SC[C@@H]2NC(=O)N[C@@H]21 [^14 C-biotin]
change of amount of 14C-biotin transferred into the octanolic phase ([2]; aqueous phase brought to pH 4, in the absence of ethanolamine): always remains the same | increase of amount of 14C-biotin transferred into the octanolic phase ([2]; aqueous phase brought to pH 4, in the presence of ethanolamine): 170 times | amount of 14C-biotin transferred into the octanolic phase ([2]; in the absence of ethanolamine): 14443 dpm | amount of 14C-biotin transferred into the octanolic phase ([2]; in the presence of ethanolamine (3 μl)): 82 dpm
